Where “and” joins values, the source holds several entries; their conditions need not be identical. Identical values can stand only once.

This assay has as its target Beta-arrestin-1 (Oryctolagus cuniculus, UniProt Q95223).

Chain of Beta-arrestin-1 (Q95223 whole entry): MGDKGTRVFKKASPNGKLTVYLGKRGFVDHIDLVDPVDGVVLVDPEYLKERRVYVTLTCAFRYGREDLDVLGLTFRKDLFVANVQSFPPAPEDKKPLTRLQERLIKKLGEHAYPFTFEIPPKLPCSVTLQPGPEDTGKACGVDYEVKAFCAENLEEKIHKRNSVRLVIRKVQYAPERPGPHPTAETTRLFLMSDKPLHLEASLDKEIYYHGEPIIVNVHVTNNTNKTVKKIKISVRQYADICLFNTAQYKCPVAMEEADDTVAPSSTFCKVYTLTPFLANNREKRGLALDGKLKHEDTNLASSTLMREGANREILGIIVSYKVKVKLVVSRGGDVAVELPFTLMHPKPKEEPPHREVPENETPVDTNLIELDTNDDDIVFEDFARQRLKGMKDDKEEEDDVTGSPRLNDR

`O=C1CCCN1CC#CCN1CCCC1` [1-[4-(2-oxo-pyrrolidin-1-yl)-but-2-ynyl]-pyrrolidinium]: the Ki is 214 nM and 1560 nM.

`CC(=O)OCC[N+](C)(C)C` [2-acetoxyethyl(trimethyl)ammonium;perchlorate] displayed a Ki of 3230 nM.

Consider `C[N+](C)(C)CCOC(N)=O` [(2-Hydroxyethyl)trimethyl ammonium chloride carbamate], for which the Ki was 1660 nM and > 10000 nM.

The record behind these values is BindingDB's records for PubMed 3806397 (University of Arizona, 1987).
